Test results published in US20210393521A1, “PREPARATION OF A PHARMACEUTICAL COMPOSITION OF OLODATEROL, TIOTROPIUM BROMIDE AND BUDESONIDE” (priority 2020, published 2021).
In brackets after ≈: the same amount, converted by molar mass.

Columns and labels:
[1] = background statement; cited from earlier work
[2] = Solubility test of BD in SBECD and Tween 80 solutions; format: physicochemical
Description: Solubility test to investigate the solubilizing effect of SBECD and Tween 80 as solubilizers on BD, and to investigate the solubility of BD at different concentrations.
Investigation of the solubility of BD under different concentrations of SBECD: Weigh 0.1 g, 0.3 g, 0.5 g, and 1.0 g of […] into a 10 ml EP tube, add 10 ml of pure water, and shake until the […] is completely dissolved, then add excess BD (about 500 mg/100 mL), and wrap the EP tube in tin foil to protect from light. After protecting from light, place the EP tube on a shaker, shake for 24 hours, and centrifuge to collect the supernatant.

| SMILES | half-life [1] | maintains bronchiectatic activity for [1] [h] | BD Solubility ([2]; SBECD concentration 1%) [mg/100 ml] | BD Solubility ([2]; SBECD concentration 3%) [mg/100 ml] | BD Solubility ([2]; SBECD concentration 5%) [mg/100 ml] | BD Solubility ([2]; SBECD concentration 10%) [mg/100 ml] | BD Solubility ([2]; Tween 80 concentration 5 mg/100 ml) [mg/100 ml] | BD Solubility ([2]; Tween 80 concentration 10 mg/100 ml) [mg/100 ml] | BD Solubility ([2]; Tween 80 concentration 20 mg/100 ml) [mg/100 ml] | BD Solubility ([2]; Tween 80 concentration 1%) [mg/100 ml] | BD Solubility ([2]; Tween 80 concentration 3%) [mg/100 ml] | BD Solubility ([2]; Tween 80 concentration 5%) [mg/100 ml] | BD Solubility ([2]; Tween 80 concentration 10%) [mg/100 ml] | solubility at 24 h ([2]; Tween 80 solution in water, aqueous with cosolvent or surfactant or cyclodextrin, thermodynamic from solid, Tween 80 concentration 20 mg/100 ml) [µg/mL] |
| --- | --- | --- | --- | --- | --- | --- | --- | --- | --- | --- | --- | --- | --- | --- |
| COc1ccc(CC(C)(C)NC[C@H](O)c2cc(O)cc3c2OCC(=O)N3)cc1 [Olodaterol, 6-hydroxy-8-[(1R)-1-hydroxy-2-{[1-(4-methoxyphenyl)-2-methylpropan-2-yl]amino}ethyl]-3,4-dihydro-2H-1,4-benzoxazin-3-one] | more than 12 h | 24 |  |  |  |  |  |  |  |  |  |  |  |  |
| CCCC1O[C@@H]2C[C@H]3[C@@H]4CCC5=CC(=O)C=C[C@]5(C)[C@H]4[C@@H](O)C[C@]3(C)[C@]2(C(=O)CO)O1 (stereo partly drawn) [BD, 11β,21-dihydroxy-16α,17α-(butylidenebis(oxy))pregna-1,4-diene-3,20-dione] |  |  | 16.91 | 40.28 | 61.91 | 81.3 | 0.224 | 0.256 | 0.292 | 16.54 | 38.88 | 64.84 | 118.79 | 2.92 (≈ 6.78 µM) |
